This note sets out measurements from article PMC3077712 (2010).

Assay [1] concerns the target T1, Cyclooxygenase-2 (COX-2) (Ovis aries, UniProt P79208).
T1 sequence (P79208 17-603): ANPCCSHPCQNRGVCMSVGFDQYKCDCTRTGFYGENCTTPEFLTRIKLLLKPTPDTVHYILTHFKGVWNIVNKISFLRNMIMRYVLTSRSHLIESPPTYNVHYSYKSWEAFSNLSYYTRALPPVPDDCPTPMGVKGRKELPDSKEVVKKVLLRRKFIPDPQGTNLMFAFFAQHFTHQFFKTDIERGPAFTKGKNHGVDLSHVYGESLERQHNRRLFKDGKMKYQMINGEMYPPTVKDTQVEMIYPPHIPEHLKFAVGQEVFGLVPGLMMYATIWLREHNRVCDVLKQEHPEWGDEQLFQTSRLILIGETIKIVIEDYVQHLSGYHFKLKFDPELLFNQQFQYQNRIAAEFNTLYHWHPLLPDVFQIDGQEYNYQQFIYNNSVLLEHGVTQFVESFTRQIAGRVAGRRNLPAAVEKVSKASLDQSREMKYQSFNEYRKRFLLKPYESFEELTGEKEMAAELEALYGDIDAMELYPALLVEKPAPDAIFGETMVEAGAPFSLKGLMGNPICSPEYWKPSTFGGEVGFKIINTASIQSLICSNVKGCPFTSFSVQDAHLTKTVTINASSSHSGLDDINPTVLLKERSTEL
The assay can be described thus: purified enzyme, product formation and regioisomers by RP-HPLC-MS/MS. It counts as biochemical.

Assay [2] concerns the target T1, Cyclooxygenase-2 (COX-2). Put plainly: purified enzyme turnover, RP-HPLC-MS/MS. It counts as biochemical.

Consider `CC(=O)Oc1ccccc1C(=O)O` [ASA], for which the “purified enzyme, product formation and regioisomers by RP-HPLC-MS/MS” value at Cyclooxygenase-2 (COX-2) [1] is “ASA increased the rate and extent of formation of OH-DPA (Fig. 3c) and shifted the distribution of hydroxy regioisomers”. Regarding `CC/C=C\C/C=C\C/C=C\C/C=C\C/C=C\CCCCCC(=O)O` [DPA, (7Z,10Z,13Z,16Z,19Z)-docosapentaenoic acid], the “purified enzyme turnover, RP-HPLC-MS/MS” value on Cyclooxygenase-2 (COX-2) [2] is “purified ovine COX-2 generated the EFOX-D5 precursor, hydroxy-DPA (OH-DPA), from DPA”.
